Source: the NIST ThermoML archive (doi:10.1016/j.tca.2016.02.005)

Experiments:
[1] = xn = mol fraction of the nth substance listed; settings: 101.3 kPa, Liquid; for speed of sound: Frequency=3 MHz, Sing-around technique in a fixed-path interferometer; for mass density: Vibrating tube method
[2] = refractive index (Na D-line) (dimensionless); xn = mol fraction of the nth substance listed; settings: 101.3 kPa, Liquid, Standard Abbe refractometry

COCCO [2-methoxyethan-1-ol] + CCn1cc[n+](C)c1.F[B-](F)(F)F
Settings	mass density, [1] [kg/m3]	refractive index, [2]	speed of sound, [1] [m/s]
298.15 K, x2 = 0	960.9	1.4003	1345.8
298.15 K, x2 = 0.0515	993.6	1.4031	1379.1
298.15 K, x2 = 0.102	1022	1.4052	1408.5
298.15 K, x2 = 0.1502	1046.9	1.4067	1433.7
298.15 K, x2 = 0.21	1075	1.408	1461.4
298.15 K, x2 = 0.3051	1113.8	1.4094	1498.3
298.15 K, x2 = 0.3976	1145.5	1.4101	1526.8
298.15 K, x2 = 0.5036	1175.9	1.4107	1552.1
298.15 K, x2 = 0.6063	1200.7	1.4111	1570.9
298.15 K, x2 = 0.701	1220.6	1.4115	1584.8
298.15 K, x2 = 0.8024	1240.1	1.4118	1597.7
298.15 K, x2 = 0.8521	1249.4	1.4117	1603.7
298.15 K, x2 = 0.9	1258.3	1.4115	1609.6
298.15 K, x2 = 0.9502	1267.8	1.4111	1616
308.15 K, x2 = 0	951.7	1.3961	1311.3
308.15 K, x2 = 0.0515	984.6	1.3991	1345.9
308.15 K, x2 = 0.102	1013.2	1.4014	1376.4
308.15 K, x2 = 0.1502	1038.3	1.4031	1402.7
308.15 K, x2 = 0.21	1066.5	1.4046	1431.6
308.15 K, x2 = 0.3051	1105.5	1.4061	1470
308.15 K, x2 = 0.3976	1137.4	1.407	1499.7
308.15 K, x2 = 0.5036	1168	1.4077	1526.1
308.15 K, x2 = 0.6063	1192.9	1.4082	1545.8
308.15 K, x2 = 0.701	1212.9	1.4087	1560.3
308.15 K, x2 = 0.8024	1232.4	1.4091	1573.6
308.15 K, x2 = 0.8521	1241.7	1.4091	1579.8
308.15 K, x2 = 0.9	1250.6	1.4089	1585.9
308.15 K, x2 = 0.9502	1260.2	1.4085	1592.5
318.15 K, x2 = 0	942.7	1.3917	1276.4
318.15 K, x2 = 0.0515	975.9	1.3951	1312.3
318.15 K, x2 = 0.102	1004.7	1.3977	1344.1
318.15 K, x2 = 0.1502	1030	1.3996	1371.4
318.15 K, x2 = 0.21	1058.5	1.4013	1401.5
318.15 K, x2 = 0.3051	1097.9	1.403	1441.5
318.15 K, x2 = 0.3976	1130.1	1.4039	1472.5
318.15 K, x2 = 0.5036	1160.8	1.4047	1500.1
318.15 K, x2 = 0.6063	1185.8	1.4053	1520.6
318.15 K, x2 = 0.701	1205.8	1.406	1535.7
318.15 K, x2 = 0.8024	1225.2	1.4064	1549.6
318.15 K, x2 = 0.8521	1234.4	1.4065	1556.1
318.15 K, x2 = 0.9	1243.2	1.4064	1562.4
318.15 K, x2 = 0.9502	1252.5	1.4059	1569.2
328.15 K, x2 = 0	933.4	1.3876	1241.9
328.15 K, x2 = 0.0515	966.8	1.3914	1279.2
328.15 K, x2 = 0.102	995.8	1.3943	1312.1
328.15 K, x2 = 0.1502	1021.3	1.3965	1340.5
328.15 K, x2 = 0.21	1050	1.3983	1371.7
328.15 K, x2 = 0.3051	1089.6	1.4002	1413.4
328.15 K, x2 = 0.3976	1122	1.4011	1445.7
328.15 K, x2 = 0.5036	1152.9	1.4018	1474.5
328.15 K, x2 = 0.6063	1178	1.4024	1495.9
328.15 K, x2 = 0.701	1198.1	1.403	1511.7
328.15 K, x2 = 0.8024	1217.6	1.4035	1526.2
328.15 K, x2 = 0.8521	1226.8	1.4036	1532.9
328.15 K, x2 = 0.9	1235.6	1.4035	1539.4
328.15 K, x2 = 0.9502	1245	1.4031	1546.4
